Experimental data taken from ChEMBL document CHEMBL1201862, “PubChem BioAssay data set” (2004).
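Five compound concentrations were applied to cells in 96-well plates for 48 hours; endpoints were derived by simple linear interpolation of the resulting dose-response curve. At the GI50, growth is halved.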 The source made the active and inactive calls. No stated cut-off is given here; in the data, active = GI50 up to about 1.1 µM and inactive = higher.

Key:
Experiment in all cases: NCI tumour cell line growth inhibition, 48 h
TK-10 = test system: TK-10
RXF 393 = test system: RXF 393
CAKI-1 = test system: CAKI-1
SK-OV-3 = test system: SK-OV-3
CCRF-CEM = test system: CCRF-CEM
NCI/ADR-RES = test system: NCI/ADR-RES
SN12C = test system: SN12C
SK-MEL-2 = test system: SK-MEL-2
IGROV-1 = test system: IGROV-1
MDA-MB-435 = test system: MDA-MB-435
RPMI-8226 = test system: RPMI-8226
HCT-116 = test system: HCT-116
PC-3 = test system: PC-3
NCI-H23 = test system: NCI-H23
SF-295 = test system: SF-295
M14 = test system: M14
NCI-H226 = test system: NCI-H226
K562 = test system: K562
HOP-62 = test system: HOP-62
NCI-H460 = test system: NCI-H460

Row | Structure (SMILES) | GI50 (TK-10) | GI50 (RXF 393) | GI50 (CAKI-1) | GI50 (SK-OV-3) | GI50 (CCRF-CEM) | GI50 (NCI/ADR-RES) | GI50 (SN12C) | GI50 (SK-MEL-2) | GI50 (IGROV-1) | GI50 (MDA-MB-435) | GI50 (RPMI-8226) | GI50 (HCT-116) | GI50 (PC-3) | GI50 (NCI-H23) | GI50 (SF-295) | GI50 (M14) | GI50 (NCI-H226) | GI50 (K562) | GI50 (HOP-62) | GI50 (NCI-H460)
1 | O=C1OCC(CN2CCC(n3c(=O)[nH]c4ccccc43)CC2)=C1c1ccccc1 | 28.1 µM (inactive) | 34.8 µM (inactive) | 22.9 µM (inactive) | 37.2 µM (inactive) | 13.7 µM (inactive) | 22.5 µM (inactive) | 22 µM (inactive) | 19.8 µM (inactive) | 22.2 µM (inactive) | 25.3 µM (inactive) | 28.8 µM (inactive) | 25.5 µM (inactive) | 19 µM (inactive) | 21.2 µM (inactive) | 26.4 µM (inactive) | 18.3 µM (inactive) | 25.4 µM (inactive) | 14.9 µM (inactive) | 28.5 µM (inactive) | 6.78 µM (inactive)
2 | COc1ccc(-n2c(=O)[nH]n(C(C)=O)c2=O)cc1 | > 100 µM (inactive) | > 100 µM (inactive) | > 100 µM (inactive) | – | > 100 µM (inactive) | > 100 µM (inactive) | > 100 µM (inactive) | > 100 µM (inactive) | > 100 µM (inactive) | > 100 µM (inactive) | > 100 µM (inactive) | > 100 µM (inactive) | > 100 µM (inactive) | > 100 µM (inactive) | > 100 µM (inactive) | > 100 µM (inactive) | > 100 µM (inactive) | > 100 µM (inactive) | – | > 100 µM (inactive)
3 | COc1ccc(C[C@@H](CO)NC2=C(C#N)CCC2)cc1 | 63.8 µM (inactive) | 48.6 µM (inactive) | 43 µM (inactive) | 49.1 µM (inactive) | 42.6 µM (inactive) | 28.4 µM (inactive) | > 100 µM (inactive) | > 100 µM (inactive) | – | 48 µM (inactive) | 18.1 µM (inactive) | 38.5 µM (inactive) | 32.3 µM (inactive) | 52.4 µM (inactive) | 29.7 µM (inactive) | 41.4 µM (inactive) | 48.3 µM (inactive) | 33.4 µM (inactive) | 56.5 µM (inactive) | 64.7 µM (inactive)
4 | Nn1c(SCC(=O)O)nc2ccccc2c1=O | > 100 µM (inactive) | > 100 µM (inactive) | > 100 µM (inactive) | – | > 100 µM (inactive) | > 100 µM (inactive) | > 100 µM (inactive) | > 100 µM (inactive) | > 100 µM (inactive) | > 100 µM (inactive) | > 100 µM (inactive) | > 100 µM (inactive) | > 100 µM (inactive) | > 100 µM (inactive) | > 100 µM (inactive) | > 100 µM (inactive) | > 100 µM (inactive) | > 100 µM (inactive) | – | > 100 µM (inactive)
5 | COc1ccc(C(NCCNC(c2ccc(OC)c(OC)c2)c2cc3c(cc2O)OCO3)c2cc3c(cc2O)OCO3)cc1OC (stereo not drawn) | 4.04 µM (inactive) | 1.72 µM (inactive) | 2.64 µM (inactive) | 6.87 µM (inactive) | 0.141 µM (active) | 2.13 µM (inactive) | 1.92 µM (inactive) | 6.81 µM (inactive) | 2.72 µM (inactive) | 1.87 µM (inactive) | 2 µM (inactive) | 2.26 µM (inactive) | 2.47 µM (inactive) | 2.51 µM (inactive) | 5.32 µM (inactive) | 2.92 µM (inactive) | 8.02 µM (inactive) | 1.49 µM (inactive) | 8.18 µM (inactive) | 4.35 µM (inactive)
6 | COc1ccc2c(=O)c3c([nH]c2c1)OCC3=O | > 100 µM (inactive) | > 100 µM (inactive) | > 100 µM (inactive) | > 100 µM (inactive) | > 100 µM (inactive) | > 100 µM (inactive) | – | > 100 µM (inactive) | > 100 µM (inactive) | > 100 µM (inactive) | > 100 µM (inactive) | > 100 µM (inactive) | > 100 µM (inactive) | > 100 µM (inactive) | > 100 µM (inactive) | > 100 µM (inactive) | > 100 µM (inactive) | 36.5 µM (inactive) | > 100 µM (inactive) | > 100 µM (inactive)
7 | Cc1ccc2nc(-n3c(/C=C/c4ccccc4O)nc4ccccc4c3=O)sc2c1 | > 100 µM (inactive) | > 100 µM (inactive) | > 100 µM (inactive) | > 100 µM (inactive) | 16.5 µM (inactive) | > 100 µM (inactive) | – | > 100 µM (inactive) | > 100 µM (inactive) | > 100 µM (inactive) | 76.4 µM (inactive) | > 100 µM (inactive) | > 100 µM (inactive) | > 100 µM (inactive) | > 100 µM (inactive) | > 100 µM (inactive) | > 100 µM (inactive) | > 100 µM (inactive) | > 100 µM (inactive) | > 100 µM (inactive)
8 | CCOc1cc2c(cc1OC(C)=O)C(=O)CC[C@H]1C3CC[C@H](OC(C)=O)[C@@]3(C)CC[C@H]21 (stereo partly drawn) | > 100 µM (inactive) | > 100 µM (inactive) | > 100 µM (inactive) | > 100 µM (inactive) | > 100 µM (inactive) | > 100 µM (inactive) | – | > 100 µM (inactive) | – | > 100 µM (inactive) | > 100 µM (inactive) | > 100 µM (inactive) | > 100 µM (inactive) | > 100 µM (inactive) | > 100 µM (inactive) | > 100 µM (inactive) | > 100 µM (inactive) | > 100 µM (inactive) | > 100 µM (inactive) | > 100 µM (inactive)
9 | CN(CCNC(=O)c1nn(-c2ccccc2)c2c1ccc1ccccc12)CCNC(=O)c1nn(-c2ccccc2)c2c1ccc1ccccc12 | 1.4 µM (inactive) | 1.62 µM (inactive) | 3.33 µM (inactive) | 2.09 µM (inactive) | 2.9 µM (inactive) | 2.55 µM (inactive) | 1.88 µM (inactive) | 1.86 µM (inactive) | 1.98 µM (inactive) | 1.97 µM (inactive) | 0.202 µM (active) | 1.53 µM (inactive) | 2.13 µM (inactive) | 2.51 µM (inactive) | 1.61 µM (inactive) | 1.78 µM (inactive) | 2.29 µM (inactive) | – | 1.43 µM (inactive) | 1.41 µM (inactive)
10 | C/C(=N\Nc1nc2cc(F)ccc2s1)c1ccccn1 | – | 1.26 µM (inactive) | < 0.01 µM (active) | 0.0953 µM (active) | < 0.01 µM (active) | 0.0274 µM (active) | 0.0101 µM (active) | 1.54 µM (inactive) | 0.0198 µM (active) | 0.303 µM (active) | 0.136 µM (active) | < 0.0161 µM (active) | 0.0395 µM (active) | 0.0352 µM (active) | 0.275 µM (active) | 0.0171 µM (active) | < 0.0242 µM (active) | < 0.0147 µM (active) | 0.381 µM (active) | 0.0412 µM (active)
11 | COC(CN(C)C(=O)C(C)NC(=O)c1ccccc1)OC (stereo not drawn) | > 100 µM (inactive) | > 100 µM (inactive) | > 100 µM (inactive) | > 100 µM (inactive) | > 100 µM (inactive) | > 100 µM (inactive) | > 100 µM (inactive) | > 100 µM (inactive) | > 100 µM (inactive) | > 100 µM (inactive) | > 100 µM (inactive) | > 100 µM (inactive) | > 100 µM (inactive) | > 100 µM (inactive) | > 100 µM (inactive) | > 100 µM (inactive) | > 100 µM (inactive) | > 100 µM (inactive) | – | > 100 µM (inactive)
12 | CCOc1cc(C2CC(c3ccc(NS(=O)(=O)c4cc([N+](=O)[O-])ccc4C)cc3)=NN2C(=O)c2ccccc2)ccc1O (stereo not drawn) | 14.2 µM (inactive) | 11.4 µM (inactive) | 24.7 µM (inactive) | 18.2 µM (inactive) | 20.7 µM (inactive) | 23.3 µM (inactive) | 22.3 µM (inactive) | 13.7 µM (inactive) | 10.6 µM (inactive) | 28.1 µM (inactive) | 31.5 µM (inactive) | 15.3 µM (inactive) | 17.5 µM (inactive) | 21.5 µM (inactive) | 20.8 µM (inactive) | 18.7 µM (inactive) | 19.2 µM (inactive) | 18.2 µM (inactive) | 17.1 µM (inactive) | –
13 | COc1ccc(CNNC(=O)c2cc[n+]([BH2-]C#N)cc2)cc1OC | > 100 µM (inactive) | > 100 µM (inactive) | > 100 µM (inactive) | – | > 100 µM (inactive) | > 100 µM (inactive) | > 100 µM (inactive) | > 100 µM (inactive) | > 100 µM (inactive) | > 100 µM (inactive) | > 100 µM (inactive) | > 100 µM (inactive) | > 100 µM (inactive) | – | > 100 µM (inactive) | > 100 µM (inactive) | > 100 µM (inactive) | > 100 µM (inactive) | – | > 100 µM (inactive)
14 | O=C(/C=C/c1ccc(O)c(O)c1)OCc1ccccc1 [BENZYL CAFFEATE] | 15.4 µM (inactive) | 16.8 µM (inactive) | 27 µM (inactive) | 18.3 µM (inactive) | – | 15.8 µM (inactive) | 11.6 µM (inactive) | 13.4 µM (inactive) | 3.38 µM (inactive) | 6.27 µM (inactive) | 10.6 µM (inactive) | 13.4 µM (inactive) | 18 µM (inactive) | 14.8 µM (inactive) | 11.2 µM (inactive) | 11.1 µM (inactive) | 31.3 µM (inactive) | 9.84 µM (inactive) | 25.6 µM (inactive) | 12.8 µM (inactive)
